{
  "source": "patent US20050107450A1",
  "about": "“Dosing regimen for ppar-gamma activators” (priority 2001, published 2005)",
  "key": {"[1]": {"tested_on": "Zucker Diabetic Fatty (ZDF) rats", "quoted_text": "Model of PPAR-Gamma Activator Induced Efficacy/Glycemic Control\nTwo glucose-matched groups (n=6/group) of Zucker Diabetic Fatty (ZDF) rats, 7-8 weeks of age, were treated with vehicle (n-methylglucamine, 0.05M, 1 ml/kg, p.o.) or PPAR-gamma activator (5 mg/kg, bid)."}, "ZDF rats": {"tested_on": "ZDF rats", "conditions": "for heart weight/body weight ratio versus normal range: literature normal 0.23 (0.19-0.25); for rats with continued glycemic control (non-fasted plasma glucose less than 250 mg/dl): five weeks, of 8 rats", "quoted_text": "Less Than Daily Dosing with PPAR-gamma Activator\nThree groups of 8 plasma glucose-matched ZDF rats with non-fasted glucose values greater than 250 mg/dl were dosed with PPAR-gamma activator. During the study plasma glucose and serum albumin were measured weekly, HbA1c was measured every other week, and heart weights and body weights were measured terminally. Reduction of plasma glucose and HbA1c are markers for anti-diabetic efficacy (glycemic control). Decreased plasma albumin concentration is a marker for plasma volume expansion or hemodilution. The heart weight-to-body weight ratio is a marker for increased cardiac output secondary to volume expansion.\nAll three groups were initially dosed with PPAR-gamma activator for one week at 5 mg/kg twice daily, in order to achieve glycemic control as shown by plasma glucose less than 250 mg/dl, and volume expansion as shown by reduced serum albumin.\nFollowing the first week one group (Group BID) was continued on the daily dosing regimen while the other two were moved to less than daily dosing. Group BID continued to be dosed at 5 mg/kg twice daily, Group MWF was dosed at 10 mg/kg per day three times weekly (Monday/Wednesday/Friday), and Group MF was dosed at 10 mg/kg per day twice weekly (Monday/Friday). These three dosing regimens were continued for five weeks."}, "[2]": {"tested_on": "Normal Han Wistar female adult rats", "test": "Study 1: rat model of PPAR-gamma activator induced fluid retention/edema", "format": "in vivo", "conditions": "8 mg/kg bid oral, 21 days, compared with vehicle treated control rats", "procedure": "Rat Model of PPAR-Gamma Activator Induced Fluid Retention/Edema\nNormal Han Wistar female adult rats were housed in metabolic cages and orally dosed (8 mg/kg, bid) with PPAR-gamma activator or vehicle (PEG400, 1 ml/kg) for 21 days. Electrolyte and water balance, plasma volume, hematocrit, and interstitial fluid volume were measured. […] In addition, there was a 50% increase in interstitial fluid volume, correlating to an edematous state."}, "[3]": {"tested_on": "Normal Han Wistar female adult rats", "test": "Study 2: rat model of PPAR-gamma activator induced cardiovascular changes leading to fluid retention and edema", "format": "in vivo", "procedure": "Rat Model of PPAR-Gamma Activator Induced Cardiovascular Changes Leading to Fluid Retention and Edema\nNormal Han Wistar female adult rats were chronically instrumented for measurement of cardiac output, blood pressure and total peripheral resistance and orally dosed (8 mg/kg, bid) with PPAR-gamma activator or vehicle (PEG400, 1 ml/kg) for 10 days. Data were collected for 7 days prior to the start of dosing, for 10 days of dosing, and for 7 days after discontinuation of dosing. […] The decrease in total peripheral resistance is believed to be the initial pharmacodynamic effect of PPAR-gamma activators leading to fluid retention and edema."}, "[4]": {"conditions": "after dosing was discontinued (10 days of 8 mg/kg bid)"}},
  "note": "Where two headings read alike, the source gives them in different places.",
  "data": [
    {"smiles": "Cc1oc(-c2ccccc2)nc1CCOc1ccc(C[C@H](Nc2ccccc2C(=O)c2ccccc2)C(=O)O)cc1", "note": "[GI262570, farglitazar]", "values": [
      {"measurement": "average non-fasted plasma glucose", "setting": "[1]; 5 mg/kg bid, after four weeks, at the time dosing was discontinued, vehicle 464 mg/dl", "result": 154, "unit": "mg/dL"},
      {"measurement": "fluid status of treated rats", "setting": "[1]; 5 mg/kg bid, after four weeks, n=6", "result": "volume expanded and two were overtly edematous"},
      {"measurement": "hematocrit, end-of-treatment value", "setting": "[1]; 5 mg/kg bid, four weeks", "result": 47, "unit": "%"},
      {"measurement": "average plasma glucose", "setting": "[1]; 10 days after discontinuation of 5 mg/kg bid treatment, vehicle 462 mg/dl", "result": 175, "unit": "mg/dL"},
      {"measurement": "time for hematocrit to return to control value", "setting": "[1]; after discontinuation of 5 mg/kg bid", "result": "≤ 3", "unit": "days"},
      {"measurement": "hematocrit after discontinuation (control value)", "setting": "[1]; within 3 days after discontinuation of 5 mg/kg bid", "result": 52, "unit": "%"},
      {"measurement": "heart weight/body weight ratio versus normal range", "setting": "ZDF rats; BID dose group", "result": "increased beyond the normal range"},
      {"measurement": "increase in terminal heart weight to body weight ratio", "setting": "ZDF rats; BID group compared to the MWF and MF dose groups", "result": 13, "unit": "%"},
      {"measurement": "serum albumin concentration versus pre-treatment baseline", "setting": "ZDF rats; BID group, throughout dosing", "result": "remained below the pre-treatment baseline value"},
      {"measurement": "rats with continued glycemic control (non-fasted plasma glucose less than 250 mg/dl)", "setting": "ZDF rats; Group BID, 5 mg/kg twice daily", "result": 8},
      {"measurement": "rats with continued glycemic control (non-fasted plasma glucose less than 250 mg/dl)", "setting": "ZDF rats; Group MF, 10 mg/kg per day twice weekly", "result": 5},
      {"measurement": "rats with continued glycemic control (non-fasted plasma glucose less than 250 mg/dl)", "setting": "ZDF rats; Group MWF, 10 mg/kg per day three times weekly", "result": 6},
      {"measurement": "plasma glucose during the last two weeks of study", "setting": "ZDF rats; MWF and MF dose groups (11 responding rats) versus BID, still well below pre-dosing levels", "result": "slightly higher"},
      {"measurement": "heart weight/body weight ratio versus normal range", "setting": "ZDF rats; MWF and MF dose groups", "result": "within normal ranges"},
      {"measurement": "serum albumin concentration versus pre-treatment baseline", "setting": "ZDF rats; MWF and MF groups, by day 14 of reduced frequency dosing", "result": "returned to and remained at pre-treatment baseline values"},
      {"measurement": "mean non-fasted plasma glucose", "setting": "ZDF rats; after initial week of 5 mg/kg twice daily, all rats, pre-treatment 321 mg/dl", "result": 138, "unit": "mg/dL"},
      {"measurement": "serum albumin concentration", "setting": "ZDF rats; after initial week of 5 mg/kg twice daily, all rats, pre-treatment 3.8 gm/dl", "result": 3.5, "unit": "gm/dl"},
      {"measurement": "HbA1c", "setting": "ZDF rats; all 19 animals with glycemic control (BID, MWF, MF groups)", "result": "below 6%"},
      {"measurement": "decrease in hematocrit", "setting": "[2]", "result": 6, "unit": "%"},
      {"measurement": "electrolyte and water retention", "setting": "[2]", "result": "sustained increase"},
      {"measurement": "increase in interstitial fluid volume", "setting": "[2]", "result": 50, "unit": "%"},
      {"measurement": "increase in plasma volume", "setting": "[2]", "result": 6, "unit": "%"},
      {"measurement": "onset of change in total peripheral resistance and cardiac output after the initial dose", "setting": "[3]; 8 mg/kg bid oral", "result": "within six hours"},
      {"measurement": "time at which total peripheral resistance and cardiac output changes reached steady state", "setting": "[3]; 8 mg/kg bid oral", "result": "by treatment day four"},
      {"measurement": "cardiac output", "setting": "[3]; 8 mg/kg bid oral, 10 days", "result": "increased"},
      {"measurement": "total peripheral resistance", "setting": "[3]; 8 mg/kg bid oral, 10 days", "result": "decreased"},
      {"measurement": "full recovery of total peripheral resistance and cardiac output", "setting": "[3]; [4]", "result": "after four days"},
      {"measurement": "time until total peripheral resistance and cardiac output began to return toward control values", "setting": "[3]; [4]", "result": "≤ 24", "unit": "h"}
    ]}
  ]
}
